Data reported in patent publication US10308682B2, “Inhibition of tumor growth with aggregates of small molecules” (BRANDEIS UNIVERSITY, priority 2013, dated 2019).

Legend:
[1] = target: T1, tubulin (Homo sapiens, UniProt P68366+P68371); test: Hydrogel based protein pull-down assay, tubulin; assay type: binding; conditions: hydrogel 10 mM, HeLa cell lysate, Western blot
T1 construct: snap freeze and thaw for 3 cycles to lyse the cells; endogenous in cells; host or cells: HeLa cell lysate
Protocol: 4×10^7 of HeLa cells were scrapped from petri dish and washed with PBS buffer for 3 times then centrifuged at 300 g for 5 minutes. The collected cell pellet was mixed with phosphate buffer (100 mM) then snap freeze and thaw for 3 cycles to lyse the cells. The cell lysate was clarified by centrifugation at 12,000 g for 20 min at 4° C. to remove the whole cells, nuclei and large mitochondria. 50 μL of the supernatant lysate was gently mixed with 30 μL hydrogel of 1 (10 mM in PBS buffer, pH 7.6) on rotator at RT for 30 min. The hydrogel was collected by centrifugation (12,000 g, 5 min, 4° C.) and the supernatant was collected and placed on ice before analysis. The hydrogel was washed three times by gently mixing with 50 μL of the washing buffer (50 mM phosphate buffer pH 7.6 supplemented with 150 mM NaCl) on rotator at RT for 10 min followed by separation on centrifuge (12,000 g, 5 min, 4° C.). Supernatants were collected and placed on ice before analysis. Finally, the remaining hydrogel was dissolved using 1:1 washing buffer and 5× Laemeli buffer. All other samples were mixed with 5× Laemeli buffer (final concentration 2×) before SDS-PAGE.
That 1 enters the cells to affect cell cycle, cell migration, and eventually cell viability implies the interactions between the aggregates of 1 and certain intracellular proteins. […]

[2] = test system: Capan-2; test: Cell viability assay (MTT), Capan-2; assay type: cell-based
Protocol: Cells in exponential growth phase were seeded in a 96 well plate at a concentration of 50,000 cell/well. The cells were allowed to attach to the wells for 24 h at 37° C., 5% CO2, then the culture medium was removed and 100 μL new culture medium containing 1 at gradient concentrations was placed into each well. After culturing at 37° C., 5% CO2 for desired time, each well was added by 10 μL of 5 mg/mL MTT 43-(4,5-Dimethylthiazol-2-yl)-2,5-diphenyltetrazolium bromide), and the plated cells were incubate at dark for 4 h. 100 μL 10% SDS with 0.01 M HCl was added to each well to stop the reduction reaction and to dissolve the purple. After incubation of the cells at 37° C. for overnight, the viability is measured. Data represent the mean±standard deviation of three independent experiments.
The estimation of the threshold concentration of aggregation (320-340 μM) for 1 allows us to examine the cytotoxicity of 1 in monomer and molecular aggregate forms. We first tested the cytotoxicity of 1 towards HeLa cells, the most widely studied cancer cell line, below and above the threshold concentration.

[3] = test system: T98G cells; test: Tubulin staining (tubulin tracker), T98G cells; assay type: cell-based; conditions: 400 μM, 24 h
[4] = target: T2, tubulin heterodimers (Sus scrofa, UniProt P02550+P02554); test: In vitro tubulin polymerization assay; assay type: biochemical
T2 construct: purchased Cytoskeleton
Description: Tubulin polymerization assay in the presence of 1. In vitro tubulin polymerization reactions in (a) as prepared or (c) filtered reaction cocktail without 1 (control) or with different concentrations of 1. The amount of microtubule is in proportion to optical density at 340 nm. The calculated polymerization rate (Vmax) and the final tubulin polymer mass vs concentrations of 1 from tubulin polymerization in (b) as prepared or (d) filtered reaction cocktail. Negative stained TEM images of molecular aggregates of 1 binding with tubulin. Buffer (control) or 1 (final concentration at 200 to 500 μM) was introduced into reaction cocktail containing fully assembled microtubule (after 60 min of polymerization). The amount of microtubule remain unchanged after 30 min. (e) Molecular aggregates of 1 (400 μM) incubated with tubulins heterodimers in general tubulin buffer. Scale bar=40 nm. White arrows point at tubulin clusters on the molecular aggregates of 1. Confocal images of tubulin stained HeLa and other cell lines. (f) Time dependent cytotoxicity of 1 towards HeLa cells. Data are presented as mean±SD of three independent experiments. Tubulin staining of HeLa cells treated with as-prepared medium containing (g) 0 μM, (h) 200 μM, (i) 300 μM and (j) 400 μM of 1, and filtered medium (k) containing 400 μM of 1 for 24 h. Insets are 3× enlarged images. T98G (l, m) and PC12 (n, o) were also treated with as-prepared medium containing 0 or 400 μM of 1 for 24 h for tubulin staining DNA was counterstained blue by DAPI. Scale bar=10 μm. See also FIG. 12.
As the major function of tubulin is to polymerize into microtubule, we carried out in vitro tubulin polymerization assay to evaluate how the molecular aggregates of 1 affect the polymerization of tubulin. We incubated tubulin heterodimers (i.e., the α- and β-tubulin heterodimer, existing almost exclusively in heterodimer form in cytoplasm) with 1 at different concentrations and monitored the formation of microtubule (FIG. 5). […] At 300 μM of 1, the polymerization curve starts to deviate slightly from the control curve. […] To confirm that the molecular aggregates of 1, but not monomeric 1, inhibit the formation of microtubules, we filtrated of the reaction mixture by a 0.22 μm PVDF filter before the addition of tubulins. […] However, filtrated reaction mixtures containing 200 to 500 μM of 1 has similar polymerization curve to that of control.

[5] = test system: HeLa cells; test: Degradation of 1 in HeLa cells (LC-MS); assay type: in vitro ADME; conditions: 12 h at 37° C.
Protocol: FIG. 17 depicts the degradation of 1 in HeLa cells. HeLa cells were lysed after incubation with 1 at different concentrations for 12 h at 37° C. The fragmental residue of 1 detected and quantified by LC-MS was (S)-2-(2-(naphthalen-2-yl) acetamido)-3-phenylpropanoic acid.

T2 sequence (P02550 whole entry): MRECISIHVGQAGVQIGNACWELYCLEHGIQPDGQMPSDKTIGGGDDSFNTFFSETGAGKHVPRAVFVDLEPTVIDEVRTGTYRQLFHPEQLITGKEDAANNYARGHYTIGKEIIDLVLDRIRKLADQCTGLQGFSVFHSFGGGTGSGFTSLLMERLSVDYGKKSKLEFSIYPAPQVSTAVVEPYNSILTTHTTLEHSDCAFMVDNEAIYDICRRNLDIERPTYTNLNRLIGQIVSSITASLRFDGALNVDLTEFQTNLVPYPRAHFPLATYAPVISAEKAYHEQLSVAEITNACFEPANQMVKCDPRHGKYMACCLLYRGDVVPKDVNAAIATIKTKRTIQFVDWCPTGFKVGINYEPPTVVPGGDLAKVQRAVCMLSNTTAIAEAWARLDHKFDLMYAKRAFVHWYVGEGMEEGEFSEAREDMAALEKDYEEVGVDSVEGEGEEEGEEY
T2 sequence (P02554 whole entry): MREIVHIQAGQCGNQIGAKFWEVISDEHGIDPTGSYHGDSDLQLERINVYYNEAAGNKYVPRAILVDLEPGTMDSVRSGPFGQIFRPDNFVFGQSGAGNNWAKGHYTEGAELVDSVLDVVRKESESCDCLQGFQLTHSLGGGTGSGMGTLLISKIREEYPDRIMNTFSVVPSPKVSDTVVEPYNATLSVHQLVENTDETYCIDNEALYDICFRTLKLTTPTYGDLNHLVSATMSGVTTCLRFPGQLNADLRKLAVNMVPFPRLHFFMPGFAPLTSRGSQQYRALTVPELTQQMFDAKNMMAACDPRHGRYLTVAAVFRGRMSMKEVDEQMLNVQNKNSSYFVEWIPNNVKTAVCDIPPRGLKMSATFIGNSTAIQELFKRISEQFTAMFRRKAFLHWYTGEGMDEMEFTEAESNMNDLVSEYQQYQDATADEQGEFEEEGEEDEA
T1 sequence (P68366 whole entry): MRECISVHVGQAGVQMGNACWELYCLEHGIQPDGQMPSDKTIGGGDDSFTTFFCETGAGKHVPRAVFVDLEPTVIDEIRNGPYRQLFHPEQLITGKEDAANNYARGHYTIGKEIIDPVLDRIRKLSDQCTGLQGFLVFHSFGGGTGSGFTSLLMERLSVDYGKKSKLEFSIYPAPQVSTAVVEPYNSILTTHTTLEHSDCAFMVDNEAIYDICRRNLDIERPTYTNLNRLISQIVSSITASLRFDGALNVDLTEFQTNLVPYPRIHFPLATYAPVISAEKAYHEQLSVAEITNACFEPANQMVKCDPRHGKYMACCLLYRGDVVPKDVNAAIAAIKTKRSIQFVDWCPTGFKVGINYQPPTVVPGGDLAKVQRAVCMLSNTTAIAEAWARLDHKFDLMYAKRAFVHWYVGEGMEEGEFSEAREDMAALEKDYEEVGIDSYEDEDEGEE
T1 sequence (P68371 whole entry): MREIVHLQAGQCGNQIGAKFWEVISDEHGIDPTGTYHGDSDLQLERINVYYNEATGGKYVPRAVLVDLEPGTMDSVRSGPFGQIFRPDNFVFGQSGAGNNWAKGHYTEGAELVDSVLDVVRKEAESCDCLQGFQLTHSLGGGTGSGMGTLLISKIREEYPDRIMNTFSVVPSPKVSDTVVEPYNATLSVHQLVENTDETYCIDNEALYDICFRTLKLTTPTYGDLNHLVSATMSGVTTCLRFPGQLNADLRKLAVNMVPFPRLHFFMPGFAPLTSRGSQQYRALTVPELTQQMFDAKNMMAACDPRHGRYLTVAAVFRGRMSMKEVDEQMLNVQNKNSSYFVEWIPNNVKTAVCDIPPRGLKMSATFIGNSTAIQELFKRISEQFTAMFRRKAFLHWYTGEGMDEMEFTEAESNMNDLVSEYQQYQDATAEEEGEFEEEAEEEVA

O=C(Cc1ccc2ccccc2c1)N[C@@H](Cc1ccccc1)C(=O)N[C@@H](Cc1ccccc1)C(=O)O [Compound 1]
binding of tubulin to the aggregates of 1 [1]: higher affinity to the aggregates of 1 than actin does
cytotoxicity towards Capan-2 [2]: decreases of cell viabilities only observed at 400 and 500 μM
microtubule morphology [3]: disrupted microtubule network
polymerization rate (Vmax) ([4]; 200 μM or 300 μM, as prepared): barely inhibits the polymerization of tubulins
final amount of polymers (microtubule) ([4]; 300 μM, as prepared): slightly decreases the amount of microtubules
polymerization rate (Vmax) ([4]; 400 or 500 μM, as prepared): drastically decreases the Vmax
reduction of final amount of polymers (microtubule) ([4]; 400 or 500 μM, as prepared): about 30 % decrease
Vmax and final amount of polymers after filtration ([4]; 400 or 500 μM, filtered by 0.22 μm PVDF filter): only causes slight decreases in both Vmax and the final amount of polymers of tubulins
degradation of 1 [5]: rather fast
